In this assay the target is T1, Human Polθ polymerase domain (aa1820-2590) (Homo sapiens, UniProt O75417).
T1 construct: Human Polθ polymerase domain (aa1820-2590) was expressed in E. Coli; made in house; host or cells: E. coli
T1 sequence (O75417 1820-2590): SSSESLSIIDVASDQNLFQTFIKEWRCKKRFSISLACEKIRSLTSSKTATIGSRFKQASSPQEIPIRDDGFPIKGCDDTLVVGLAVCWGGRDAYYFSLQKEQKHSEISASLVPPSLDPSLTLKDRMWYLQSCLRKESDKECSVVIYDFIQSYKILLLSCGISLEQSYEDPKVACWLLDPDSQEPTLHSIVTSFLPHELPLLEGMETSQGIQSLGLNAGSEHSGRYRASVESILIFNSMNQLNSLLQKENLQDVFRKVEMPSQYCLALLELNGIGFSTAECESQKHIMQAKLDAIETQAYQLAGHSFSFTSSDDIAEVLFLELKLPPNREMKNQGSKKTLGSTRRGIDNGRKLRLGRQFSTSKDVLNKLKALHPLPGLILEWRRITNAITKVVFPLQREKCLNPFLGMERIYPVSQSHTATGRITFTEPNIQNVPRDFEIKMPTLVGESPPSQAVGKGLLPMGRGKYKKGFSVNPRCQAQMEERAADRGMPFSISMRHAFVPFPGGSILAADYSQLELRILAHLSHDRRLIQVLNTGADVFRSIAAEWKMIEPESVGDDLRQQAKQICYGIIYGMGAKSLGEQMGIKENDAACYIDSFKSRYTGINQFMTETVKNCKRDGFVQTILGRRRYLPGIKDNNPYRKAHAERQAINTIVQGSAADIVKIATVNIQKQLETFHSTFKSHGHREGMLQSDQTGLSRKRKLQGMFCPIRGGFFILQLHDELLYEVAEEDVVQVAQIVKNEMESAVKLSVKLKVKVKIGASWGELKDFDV
Nature of the assay: Polθ Polymerase Domain Kinact/Kl Assay (PicoGreen). The following applies: covalent inhibitors, kobs vs [I] fit, 0.8 nM Polθ, 100 nM DNA substrate, read-out: Kinact/KI. In kind it is biochemical. The protocol:
Polθ Polymerase Domain Kinact/Kl Assay
A PicoGreen assay was used to measure the Kinact and Kl values of covalent compounds that inhibit the activity of Polθ in vitro.
Human Polθ polymerase domain (aa1820-2590) was expressed in E. Coli, purified, aliquoted and stored at −80° C. until required. Polθ substrate was generated from a 1.2:1 mix of DNA II Short to DNA II Long to give a final concentration of […] substrate in annealing buffer (20 mM Tris pH 7.5, 50 mM NaCl). The substrate was heated in 50 mL aliquots to 95° C. in a heating block for 5 min before the heating block switched off, the reaction left to cool to rt and stored at −20° C. until required.
Assay measurements were performed with 1× buffer comprising 25 mM Tris pH 7.5, 12.5 mM NaCl, […], 5% (v/v) glycerol, 0.01% v/v Triton x-100, 0.1 mg/ml BSA, 1 mM DTT. Test compounds were prepared by dilution in 100% DMSO to give a 12 μM intermediate stock of each (100× final top concentration). 100 nL of 23× 1:1.5-fold serial dilutions and a DMSO only control were dispensed using the Tecan dispenser into Greiner 384 well black low volume plates (product code 784076). DMSO concentration was maintained at 1% of the final assay volume by back filling with DMSO.
2× Working stock of substrate (200 nM of DNA substrate and […] dNTPs) and enzyme (1.4 nM Polθ) were made up in assay buffer. 5 μL/well of both enzyme and substrate 2× solutions were dispensed using a Tempest dispenser (Formulatrix) into assay plates that had been pre-dispensed with compound to give a final assay concentration of 100 nM DNA substrate, […] dNTPs and 0.8 nM Polθ. To stop the reaction, […] of a solution containing 25 mM Tris-HCl pH 7.5 and 20 mM EDTA was added at […] (t=0, 2.5, 5, 7.5, 10, 12.5, 15, 20, 25, 30, 35, 40, 45, 50, 55 and 60 min) using the Tempest's time delay function. The plates were covered during the time course to prevent evaporation. After completing the assay, 5 μL of detection reagent (25 mM Tris-HCl pH 7.5 and 2.5% (v/v) PicoGreen) was dispensed into the wells using a Tempest liquid handler (Formulatrix) and plates subsequently read on the CLARIOstar Plus (BMG Labtech) using the default optical settings for fluorescein and the auto gain/focus settings.
All data analysis was carried out using GraphPad Prism V. 8 (GraphPad Software Inc, San Diego, CA) Time course data for each inhibitor concentration was fitted to equation 1 to determine kobs values.^1 Any time points where the control (DMSO alone) reaction was no longer linear were excluded from the analysis.
A secondary plot of kobs vs [I] is used to determine the Kinact and Kl parameters (for a 2-step covalent inhibitor) by fitting to equation 2.1
[formula] • 1) Evaluation of Enzyme Inhibitors in Drug Discovery (Ch9), R. A Copeland, Wiley, 2nd Edition 2013.
As for `C=CC(=O)N1CC(N2CC(=O)N(C)C(CN3CC[C@H](Nc4nc(C)cc(C(F)(F)F)c4C#N)C(=O)N(C)c4cccc(F)c43)C2)C1` (single isomer, unassigned) [Example 58B], the kinact/KI amounted to 40000 M⁻¹ s⁻¹.

Regarding `C=CC(=O)N1CC(O[C@@H]2CN(CCN3CC[C@H](Nc4nc(C)cc(C(F)(F)F)c4C#N)C(=O)N(C)c4cccc(F)c43)C[C@H]2O)C1` (single isomer, unassigned) [Example 65B], the kinact/KI stood at 550000 M⁻¹ s⁻¹.

For `C=CC(=O)N1CCN2CCN(CCN3CC[C@H](Nc4nc(C)cc(C(F)(F)F)c4C#N)C(=O)N(C)c4cccc(F)c43)CC2C1` (single isomer, unassigned) [Example 72A], the kinact/KI was found to be 180000 M⁻¹ s⁻¹.

On to `Cc1cc(C(F)(F)F)c(C#N)c(N[C@H]2CCN(CCN3CCOC4(C3)CN(C(=O)/C=C/CN(C)C)C4)c3c(F)cccc3N(C)C2=O)n1` [Example 1, (S,E)-2-((6-(2-(2-(4-(Dimethylamino)but-2-enoyl)-5-oxa-2,8-diazaspiro[3.5]nonan-8-yl)ethyl)-7-fluoro-1-methyl-2-oxo-1,2,3,4,5,6-hexahydrobenzo[b][1,4]diazocin-3-yl)amino)-6-methyl-4-(trifluoromethyl)nicotinonitrile], for which the kinact/KI came to 3.1e+06 M⁻¹ s⁻¹.

As for `Cc1cc(C(F)(F)F)c(C#N)c(N[C@H]2CCN(CCN3CCOC4(CCN(C(=O)/C=C/CN(C)C)C4)C3)c3c(F)cccc3N(C)C2=O)n1` (stereo partly drawn) [Example 2, 2-(((S)-6-(2-(2-((E)-4-(Dimethylamino)but-2-enoyl)-6-oxa-2,9-diazaspiro[4.5]decan-9-yl)ethyl)-7-fluoro-1-methyl-2-oxo-1,2,3,4,5,6-hexahydrobenzo[b][1,4]diazocin-3-yl)amino)-6-methyl-4-(trifluoromethyl)nicotinonitrile], the kinact/KI amounted to 510000 M⁻¹ s⁻¹.

As for `Cc1cc(C(F)(F)F)c(C#N)c(N[C@H]2CCN(CCN3CCOC4(C3)CN(C(=O)/C=C/CN(C)C)C4)c3ccccc3N(C)C2=O)n1` [Example 3, (S,E)-2-((6-(2-(2-(4-(Dimethylamino)but-2-enoyl)-5-oxa-2,8-diazaspiro[3.5]nonan-8-yl)ethyl)-1-methyl-2-oxo-1,2,3,4,5,6-hexahydrobenzo[b][1,4]diazocin-3-yl)amino)-6-methyl-4-(trifluoromethyl)nicotinonitrile], the kinact/KI worked out at 1.1e+06 M⁻¹ s⁻¹.

As for `Cc1cc(C(F)(F)F)c(C#N)c(N[C@H]2CCN(CCN3CC4(C3)CN(C(=O)/C=C/CN(C)C)C4)c3ccccc3N(C)C2=O)n1` [Example 4, (S,E)-2-((6-(2-(6-(4-(Dimethylamino)but-2-enoyl)-2,6-diazaspiro[3.3]heptan-2-yl)ethyl)-1-methyl-2-oxo-1,2,3,4,5,6-hexahydrobenzo[b][1,4]diazocin-3-yl)amino)-6-methyl-4-(trifluoromethyl)nicotinonitrile], the kinact/KI came to 300000 M⁻¹ s⁻¹.

With `Cc1cc(C(F)(F)F)c(C#N)c(N[C@H]2CCN(CCN3CCN(C(=O)/C=C/CN(C)C)CC3)c3ccccc3N(C)C2=O)n1` [Example 5, (S,E)-2-((6-(2-(4-(4-(Dimethylamino)but-2-enoyl)piperazin-1-yl)ethyl)-1-methyl-2-oxo-1,2,3,4,5,6-hexahydrobenzo[b][1,4]diazocin-3-yl)amino)-6-methyl-4-(trifluoromethyl)nicotinonitrile], the kinact/KI came out at 110000 M⁻¹ s⁻¹.

Take `C=CC(=O)N1CC2(CN(CCN3CC[C@H](Nc4nc(C)cc(C(F)(F)F)c4C#N)C(=O)N(C)c4cccc(F)c43)CCN2C)C1` [Example 6, (S)-2-((6-(2-(2-Acryloyl-5-methyl-2,5,8-triazaspiro[3.5]nonan-8-yl)ethyl)-7-fluoro-1-methyl-2-oxo-1,2,3,4,5,6-hexahydrobenzo[b][1,4]diazocin-3-yl)amino)-6-methyl-4-(trifluoromethyl)nicotinonitrile]: the kinact/KI was found to be 980000 M⁻¹ s⁻¹.

`C=CC(=O)N1CC2(CN(CCN3CC[C@H](Nc4nc(C)cc(C(F)(F)F)c4C#N)C(=O)N(C)c4ccc(Cl)cc43)C2)C1` [Example 7, (S)-2-((6-(2-(6-Acryloyl-2,6-diazaspiro[3.3]heptan-2-yl)ethyl)-8-chloro-1-methyl-2-oxo-1,2,3,4,5,6-hexahydrobenzo[b][1,4]diazocin-3-yl)amino)-6-methyl-4-(trifluoromethyl)nicotinonitrile]: the kinact/KI was determined as 460000 M⁻¹ s⁻¹.

As for `C=CC(=O)N1CC2(CCN(CCN3CC[C@H](Nc4nc(C)cc(C(F)(F)F)c4C#N)C(=O)N(C)c4cccc(F)c43)CC2)C1` [Example 8, (S)-2-((6-(2-(2-Acryloyl-2,7-diazaspiro[3.5]nonan-7-yl)ethyl)-7-fluoro-1-methyl-2-oxo-1,2,3,4,5,6-hexahydrobenzo[b][1,4]diazocin-3-yl)amino)-6-methyl-4-(trifluorometh-yl)nicotinonitrile], the kinact/KI amounted to 490000 M⁻¹ s⁻¹.

Turning to `C=CC(=O)N1CC2(CCCN(CCN3CC[C@H](Nc4nc(C)cc(C(F)(F)F)c4C#N)C(=O)N(C)c4cccc(F)c43)C2)C1` [Example 9, (S)-2-((6-(2-(2-Acryloyl-2,6-diazaspiro[3.5]nonan-6-yl)ethyl)-7-fluoro-1-methyl-2-oxo-1,2,3,4,5,6-hexahydrobenzo[b][1,4]diazocin-3-yl)amino)-6-methyl-4-(trifluorometh-yl)nicotinonitrile], the kinact/KI amounted to 300000 M⁻¹ s⁻¹.

Turning to `C=CC(=O)N1CC(OC2CCN(CCN3CC[C@H](Nc4nc(C)cc(C(F)(F)F)c4C#N)C(=O)N(C)c4cccc(F)c43)CC2)C1` [Example 13, (S)-2-((6-(2-(4-((1-Acrylo-ylazetidin-3-yl)oxy)piper-idin-1-yl)ethyl)-7-fluoro-1-methyl-2-oxo-1,2,3,4,5,6-hexahydrobenzo[b][1,4]diazocin-3-yl)amino)-6-methyl-4-(trifluorometh-yl)nicotinonitrile], the kinact/KI was determined as 320000 M⁻¹ s⁻¹.

Consider `C=CC(=O)N1CC(N2CCN(CCN3CC[C@H](Nc4nc(C)cc(C(F)(F)F)c4C#N)C(=O)N(C)c4cccc(F)c43)C[C@H]2C)C1` [Example 16, 2-(((S)-6-(2-((R)-4-(1-Acryloylazetidin-3-yl)-3-methylpiperazin-1-yl)-ethyl)-7-fluoro-1-methyl-2-oxo-1,2,3,4,5,6-hexa-hydrobenzo[b][1,4]diazocin-3-yl)amino)-6-methyl-4-(trifluorometh-yl)nicotinonitrile], for which the kinact/KI is 540000 M⁻¹ s⁻¹.

As for `C=CC(=O)N1CC(N2CCN(CCN3CC[C@H](Nc4nc(C)cc(C(F)(F)F)c4C#N)C(=O)N(C)c4cccc(F)c43)C[C@@H]2C)C1` [Example 17, 2-(((S)-6-(2-((S)-4-(1-Acryloylazetidin-3-yl)-3-methylpiperazin-1-yl)-ethyl)-7-fluoro-1-methyl-2-oxo-1,2,3,4,5,6-hexa-hydrobenzo[b][1,4]diazocin-3-yl)amino)-6-methyl-4-(trifluorometh-yl)nicotinonitrile], the kinact/KI came to 570000 M⁻¹ s⁻¹.

Source of the values: US20250241926A1, “HETEROCYCLIC COMPOUNDS FOR USE IN THE TREATMENT OF CANCER” (ARTIOS PHARMA LIMITED, priority 2021, published 2025).
